We go through two substances from patent EP0411503B1, “Process for identifying and synthesizing binding sites of interacting proteins” (priority 1989, dated 1999).

pKd: −log10 of the molar value. Where no end group is shown, it is not given here.

The experiment concerns peptide HIV-1 gp120. The experiment is described as follows: Affinity HPLC of CD4 peptide on immobilized HIV-1 gp120 peptide. In kind it is binding. The source says:
The existence of an interaction ability among complementary peptides was verified by affinity HPLC (G. Fassina and I. M. Chaiken, Advances in Chromatogr. 27:250, 1987).
The peptide HIV-1 gp120 was immobilized on a solid support (Eupergit^R C 30n, 800 µmoles/g load capability by controlled density) according to the conditions reported in literature (G. Fassina et al., J. Chromatogr. 376:87, 1986) and an HPLC glass column (80∗ 6.6 mm ID) was loaded with the peptide derivatized support to prepare an affinity column. The total amount of immobilized peptide in the column is 260 µg, as checked from the amino acid analysis of the support. Small amounts (1-10 µg) of CD4 peptide were eluted isochrathically on the column equilibrated by a flow rate of 1.0 ml/min with 0.1 M NH4Ac, pH 5.7.
The eluted solution was analysed by monitoring the optic absorbance.
The extension of the delay on column, which indicates the interaction between the peptides, was correlated to the dissociation constant Km/p of the binding according to the equation: 1/(V-Vo ) = Km/p /MT +[P]T /MT [formula] where V is the elution volume of the eluted peptide, Vo is void volume of the column, MT is the total immobilized peptide, [P]T is the eluted peptide, and Km/p is the dissociation constant of the binding. […]

Take NH2-APPISGOIRSS-COOH [HIV-1 gp120]: for the setting “1 mM of HIV-1 gp120 added to the buffer”, the “binding in competitive binding assay” value was “completely inhibited”.

In the case of “GPSKLNDRADS [peptide CD4, NH2-GPSKLNDRADSCOOH]”, under “immobilized HIV-1 gp120 peptide, 0.1 M NH4Ac, pH 5.7, extrapolation at concentration zero of peptide, read-out: dissociation constant”, the pKd was 4.10.
